The source of these data is patent US20130142831A1, “COMPOUNDS FOR INFLAMMATION AND IMMUNE-RELATED USES” (Synta Pharmaceuticals Corp., priority 2004, published 2013).

The test system of this experiment is IL-2 production. Kind of experiment: Inhibition of IL-2 production in PHA-activated Jurkat cells. The following applies: Homo sapiens, PHA 2.5 μg/mL, 20 hours. It is filed as cell-based. The method, then: Jurkat cells were placed in a 96 well plate (0.5 million cells per well in 1% FBS medium) then test compounds of this invention were added at different concentrations. After 10 minutes, the cells were activated with PHA (final concentration 2.5 μg/mL) and incubated for 20 hours at 37° C. under CO2. The final volume was 200 μL. Following incubation, the cells were centrifuged and the supernatants collected and stored at −70° C. prior to assaying for IL-2 production. A commercial kit (IL-2 Eli-pair, Diaclone Research, Besancon, France) was used to detect production of IL-2, from which dose response curves were obtained. The IC50 value was calculated as the concentration at which. 50% of maximum IL-2 production after stimulation was inhibited versus a non-stimulation control.

`COc1ccc2c(c1)nc(C(F)(F)F)n2-c1ccc(NC(=O)c2cc(F)cc(F)c2F)cc1` [Compound 2, 2,3,5-Trifluoro-N-[4-(2-trifluoromethyl-5-methoxy-benzoimidazol-1-yl)-phenyl]-benzamide]: the IC50 (bins given in nM) is less than 100 nM. The same measure, in the same setting: as for `COc1ccc2c(c1)nc(C(F)(F)F)n2-c1ccc(NC(=O)c2ccc(F)c(F)c2F)cc1` [Compound 3, 2,3,4-Trifluoro-N-[4-(2-trifluoromethyl-5-methoxy-benzoimidazol-1-yl)-phenyl]-benzamide], the figure is less than 100 nM; as for `COc1ccc2c(c1)nc(C(F)(F)F)n2-c1ccc(NC(=O)c2cccc(F)c2F)cc1` [Compound 4, 2,3-Difluoro-N-[4-(2-trifluoromethyl-5-methoxy-benzoimidazol-1-yl)-phenyl]-benzamide], less than 100 nM. `COc1ccc2c(c1)nc(C(F)(F)F)n2-c1ccc(NC(=O)c2ccncc2C)cc1` [Compound 5, 3-Methyl-N-[4-(2-trifluoromethyl-5-methoxy-benzoimidazol-1-yl)-phenyl]-isonicotinamide] showed an IC50 (bins given in nM) of less than 100 nM. On the same count and under the same terms, with `COc1ccc2c(c1)nc(C(F)(F)F)n2-c1ccc(NC(=O)c2ccncc2F)cc1` [Compound 6, 3-Fluoro-N-[4-(2-trifluoromethyl-5-methoxy-benzoimidazol-1-yl)-phenyl]-isonicotinamide] the figure was less than 100 nM; with `COc1ccc2c(c1)nc(C(F)(F)F)n2-c1ccc(NC(=O)c2cc(F)c(Cl)cc2Cl)cc1` [Compound 7, 2,4-Dichloro-5-fluoro-N-[4-(2-trifluoromethyl-5-methoxy-benzoimidazol-1-yl)-phenyl]-benzamide], less than 100 nM; with `O=C(Nc1ccc(-c2c(C(F)(F)F)cc3n2CCCC3)cc1)c1cccc(F)c1F` [Compound 8, 2,3-Difluoro-N-[4-(2-trifluoromethyl-5,6,7,8-tetrahydroindolizin-3-yl)-phenyl]-benzamide], less than 100 nM. The same measure, in the same setting: as for `COc1ccc2c(c1)nc(C(F)(F)F)n2-c1ccc(NC(=O)c2cccc([N+](=O)[O-])c2)cc1` [Compound 10, 3-Nitro-N-[4-(2-trifluoromethyl-5-methoxy-benzoimidazol-1-yl)-phenyl]-benzamide], the figure is less than 100 nM. In the case of `CSc1nc2ccccc2n1-c1ccc(NC(=O)c2cccc(F)c2F)cc1` [Compound 11, 2,3-Difluoro-N-[4-(2-methylsulfanyl-benzoimidazol-1-yl)-phenyl]-benzamide], where the note is “bins given in nM”, the IC50 is less than 100 nM. Same read-out and setting: as for `Fc1cccc(C(=S)Nc2ccc(-n3c(C(F)(F)F)nc4ccccc43)cc2)c1F` [Compound 12, 2,3-Difluoro-N-[4-(2-trifluoromethyl-benzoimidazol-1-yl)-phenyl]-thiobenzamide], the figure is less than 100 nM; as for `O=C(Nc1ccc(-n2c(C(F)(F)F)nc3ccccc32)cc1)c1cccc(Cl)c1Cl` [Compound 13, 2,3-Dichloro-N-[4-(2-trifluoromethyl-benzoimidazol-1-yl)-phenyl]-benzamide], less than 100 nM. On the same count and under the same terms, as for `COc1ccc2nc(C(F)(F)F)n(-c3ccc(NC(=O)c4cccc(F)c4F)cc3)c2c1` [Compound 14, 2,3-Difluoro-N-[4-(2-trifluoromethyl-6-methoxy-benzoimidazol-1-yl)-phenyl]-benzamide], the figure is less than 100 nM. For the setting “bins given in nM”, `O=C(Nc1ccc(-n2c(C(F)(F)F)nc3ccccc32)cc1)c1cccc(Cl)c1F` [Compound 15] returned an IC50 of 100 to 500 nM. Molecule `Nc1cc(F)c(F)c(C(=O)Nc2ccc(-n3c(C(F)(F)F)nc4ccccc43)cc2)c1F` [Compound 16, 2,3,6-Trifluoro-5-amino-N-[4-(2-trifluoromethyl-benzoimidazol-1-yl)-phenyl]-benzamide] registered an IC50 (bins given in nM) of 100 to 500 nM. In the case of `Cc1cc(NC(=O)c2cccc(F)c2F)ccc1-n1c(C(F)(F)F)nc2ccccc21` [Compound 17, 2,3-Difluoro-N-[3-methyl-4-(2-trifluoromethyl-benzoimidazol-1-yl)-phenyl]-benzamide], the IC50 (bins given in nM) lay within 100 to 500 nM. For the molecule `Cc1ccccc1C(=O)Nc1ccc(-c2c(C(F)(F)F)cc3n2CCCC3)cc1` [Compound 18, 2-Methyl-N-[4-(2-trifluoromethyl-5,6,7,8-tetrahydroindolizin-3-yl)-phenyl]-benzamide], for the setting “bins given in nM”, the IC50 was in the range of 100 to 500 nM. On the same count and under the same terms, as for `N#Cc1ccc2nc(C(F)(F)F)n(-c3ccc(NC(=O)c4cccc(F)c4F)cc3)c2c1` [Compound 20, 2,3-Difluoro-N-[4-(2-trifluoromethyl-6-cyano-benzoimidazol-1-yl)-phenyl]-benzamide], the figure is 100 to 500 nM; as for `Nc1cccc2c1nc(C(F)(F)F)n2-c1ccc(NC(=O)c2cccc(F)c2F)cc1` [Compound 21, 2,3-Difluoro-N-[4-(2-trifluoromethyl-4-amino-benzoimidazol-1-yl)-phenyl]-benzamide], 100 to 500 nM; as for `CC(C)(C)OC(=O)Nc1cc(F)c(F)c(C(=O)Nc2ccc(-n3c(C(F)(F)F)nc4ccccc43)cc2)c1F` [Compound 22, N-(3-{N-[4-(2-trifluoromethyl-benzoimidazol-1-yl)-phenyl]-carbamoyl}-2,4,5-trifluoro-phenyl)-carbamic acid t-butyl ester], 100 to 500 nM.

In turn, `O=C(Nc1ccc(-n2c(Cl)nc3ccccc32)cc1)c1cccc(F)c1F` [Compound 23, 2,3-Difluoro-N-[4-(2-chloro-benzoimidazol-1-yl)-phenyl]-benzamide] came in with an IC50 (bins given in nM) of 100 to 500 nM. Still for that read-out and setting: with `Cc1nnsc1C(=O)Nc1ccc(-c2c(Cl)cc3n2CCCC3)cc1` [Compound 24, 4-Methyl-[1,2,3]thiadiazole-5-carboxylic acid {N-[4-(2-chloro-5,6,7,8-tetrahydroindolizin-3-yl)-phenyl]} amide] the figure was 100 to 500 nM; with `O=C(Nc1ccc(-n2c(C(F)(F)F)nc3ccccc32)cc1)c1cc(F)ccc1F` [Compound 26, 2,5-Difluoro-N-[4-(2-trifluoromethyl-benzoimidazol-1-yl)-phenyl]-benzamide], 100 to 500 nM; with `O=C(Nc1ccc(-n2c(C(F)(F)F)nc3ccccc32)cc1)c1ccncc1F` [Compound 27, 3-Fluoro-N-[4-(2-trifluoromethyl-benzoimidazol-1-yl)-phenyl]-isonicotinamide], 100 to 500 nM. For the setting “bins given in nM”, `O=C(Nc1ccc(-n2c(Br)nc3ccccc32)cc1)c1cccc(F)c1F` [Compound 28, 2,3-Difluoro-N-[4-(2-bromo-benzoimidazol-1-yl)-phenyl]-benzamide] displayed an IC50 of 100 to 500 nM. Same read-out and setting: with `Cc1nnsc1C(=O)Nc1ccc(-n2c(C(F)(F)F)nc3ccccc32)cc1` [Compound 29, 4-Methyl-[1,2,3]thiadiazole-5-carboxylic acid {N-[4-(2-trifluoromethyl-benzoimidazol-1-yl)-phenyl]} amide] the figure was 100 to 500 nM; with `O=C(Nc1ccc(-n2c(C(F)(F)F)nc3ccccc32)c(C(F)(F)F)c1)c1cccc(F)c1F` [Compound 30, 2,3-Difluoro-N-[3-trifluoromethyl-4-(2-trifluoromethyl-benzoimidazol-1-yl)-phenyl]-benzamide], 100 to 500 nM.

`CC(C)(C)OC(=O)Nc1ccc(C(=O)Nc2ccc(-n3c(C(F)(F)F)nc4ccccc43)cc2)c(F)c1F` [Compound 31, N-(4-{N-[4-(2-trifluoromethyl-benzoimidazol-1-yl)-phenyl]-carbamoyl}-2,3-difluoro-phenyl)-carbamic acid t-butyl ester]: the IC50 (bins given in nM) was 100 to 500 nM. Still for that read-out and setting: with `COc1cc2nc(C(F)(F)F)n(-c3ccc(NC(=O)c4cccc(F)c4F)cc3)c2cc1OC` [Compound 32, 2,3-Difluoro-N-[4-(2-trifluoromethyl-5,6-dimethoxy-benzoimidazol-1-yl)-phenyl]-benzamide] the figure was 100 to 500 nM; with `O=C(Nc1ccc(-n2c(I)nc3ccccc32)cc1)c1cccc(F)c1F` [Compound 33, 2,3-Difluoro-N-[4-(2-iodo-benzoimidazol-1-yl)-phenyl]-benzamide], 100 to 500 nM; with `Fc1ccc(F)c(NC(=S)Nc2ccc(-n3c(C(F)(F)F)nc4ccccc43)nc2)c1` [Compound 34, N′-[2-(2-trifluoromethyl-benzoimidazol-1-yl)-pyrid-5-yl]-N-(2,5-difluoro-phenyl)-thiourea], 100 to 500 nM. The same measure, in the same setting: with `CC(C)(C)c1ccc2c(c1)nc(C(F)(F)F)n2-c1ccc(NC(=O)c2cccc(F)c2F)cc1` [Compound 35, 2,3-Difluoro-N-[4-(2-trifluoromethyl-5-tert-butyl-benzoimidazol-1-yl)-phenyl]-benzamide] the figure was 100 to 500 nM; with `N#Cc1cc(NC(=O)c2cccc(F)c2F)ccc1-n1c(C(F)(F)F)nc2ccccc21` [Compound 37, 2,3-Difluoro-N-[3-cyano-4-(2-trifluoromethyl-benzoimidiazol-1-yl)-phenyl]-benzamide], 100 to 500 nM; with `O=C(Nc1ccc(-n2c(C(F)(F)F)nc3ccccc32)c(Cl)c1)c1cc(F)ccc1F` [Compound 38, 2,5-Difluoro-N-[3-chloro-4-(2-trifluoromethyl-benzoimidazol-1-yl)-phenyl]-benzamide], 100 to 500 nM.

For `Nc1ccc2c(c1)nc(C(F)(F)F)n2-c1ccc(NC(=O)c2cccc(F)c2F)cc1` [Compound 39, 2,3-Difluoro-N-[4-(2-trifluoromethyl-5-amino-benzoimidazol-1-yl)-phenyl]-benzamide], where the note is “bins given in nM”, the IC50 lay in the range of 100 to 500 nM. Still for that read-out and setting: with `C[S+]([O-])c1nc2ccccc2n1-c1ccc(NC(=O)c2cccc(F)c2F)cc1` (stereo not drawn) [Compound 40, 2,3-Difluoro-N-[4-(2-methanesulfinyl-benzoimidazol-1-yl)-phenyl]-benzamide] the figure was 100 to 500 nM. In turn, `CC(C)c1nc2ccccc2n1-c1ccc(NC(=O)c2cccc(F)c2F)cc1` [Compound 49, 2,3-Difluoro-N-[4-(2-isopropyl-benzoimidazol-1-yl)-phenyl]-benzamide] gave an IC50 (bins given with μM limit) greater than 1000 nM.

Usually IC50 stands for the midpoint of a concentration-inhibition curve. A lower IC50 goes with greater potency in that assay.
